According to patent US20090030086A1, “ANTIMICROBIAL AGENTS” (priority 2005, published 2009):
Converted amounts (≈) assume the structure as drawn.

Experiments:
[1] = system: S. aureus ATCC 29213; assay: Disc diffusion assay (DDA); type: cell-based, Staphylococcus aureus; details: Staphylococcus aureus, ATCC29213; S. aureus ATCC 29213; unsupplemented agar; 200 μg per disc (thymoquinone 50 μg, 2,6-dimethoxy-p-benzoquinone 100 μg); read-out: DDA (diameter of zone of inhibition)
Method in brief: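 Paper discs loaded with test compound (usually 200 μg/disc), solvent evaporated ≥30 min, placed on inoculated Mueller-Hinton agar pH 7.2. Incubated aerobically at 37 °C for 24 h; inhibition zone diameter measured and area calculated as π(D/2)^2.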

[2] = system: E. faecalis ATCC 29212; assay: MBC assay; type: cell-based, Enterococcus faecalis
Experimental: The staphylococci and enterococci were cultured and maintained on Mueller-Hinton Medium (agar and broth) at pH 7.2; they were incubated aerobically at 37° C. for 24 hours.
(§1) This assay, normally carried out after an MIC assay, determines the minimum concentration of a compound that is lethal to the micro-organism being tested.
(§2) These samples were then individually sub-cultured on non-selective agar medium, under the incubation conditions described above. Following incubation they were examined visually for bacterial growth.
(§3) The activity of TBHQ against three other bacterial strains was investigated using MIC, MBC and DDA assays as described above. For the DDA assays, 200 μg of TBHQ was loaded onto each disc, using ethanol as the solvent.

[3] = system: P. granulosum PRP-055; assay: Disc diffusion assay (DDA); type: cell-based; details: resistance None, 200 μg per disc
Experimental: (§4) The Propionibacterium spp organisms were cultured and maintained on Wilkins-Chalgren Anaerobe Medium (agar and broth) at pH 6.0; cultures were incubated anaerobically at 37° C. for 72 hours.
(§5) A sterile paper disc was impregnated with a sample of the test compound and a minimum of 30 minutes allowed for the solvents to evaporate as far as possible. The disc was then placed on an agar plate onto which the test micro-organism had been inoculated. The plate was then incubated under the conditions described above, following which it was examined visually for signs of bacterial growth. If the test compound had antimicrobial activity, a circular zone of no growth would be obtained around the disc. The diameter of this zone of “inhibition” was measured using a ProtoCOL™ automated zone sizer (Synbiosis, Cambridge, UK). In general, a greater diameter and/or area of the zone of inhibition indicates a greater antimicrobial activity in the relevant test compound, although other factors such as test compound mobility through the agar gel may also influence the result.
(§6) The area of the zone of inhibition was calculated from the measured zone diameter (D) using the formula π(D/2)^2.
(§7) For the DDA assays, 200 μg of TBHQ was loaded onto each disc. The solvent used for the TBHQ was ethanol.

[4] = system: P. granulosum PRP-005; assay: Disc diffusion assay (DDA); type: cell-based; details: resistance MLSK, 200 μg per disc
Experimental: as §4, §5, §6, §7

[5] = system: P. granulosum PRP-043; assay: Disc diffusion assay (DDA); type: cell-based; details: resistance MLS, 200 μg per disc
Experimental: as §4, §5, §6, §7

[6] = system: P. acnes PRP-010; assay: Disc diffusion assay (DDA); type: cell-based, Propionibacterium acnes; details: resistance MLSK, 200 μg per disc
Experimental: Other propionibacterial strains were also tested, as described in Example 4 below. These included certain antibiotic resistant propionibacteria, such as the two P. acnes strains designated PRP-010 and PRP-039 which are resistant respectively to macrolides-lincosamides-streptogramins-ketolides (MLSK) and to macrolides-lincosamides-streptogramins (MLS) and tetracycline—in other words, PRP-010 is resistant to erythromycin and clindamycin, and PRP-039 to erythromycin, clindamycin and tetracycline.
as §4
A sterile paper disc was impregnated with a sample of the test compound and a minimum of 30 minutes allowed for the solvents to evaporate as far as possible. The disc was then placed on an agar plate onto which the test micro-organism had been inoculated. The plate was then incubated under the conditions described above, following which it was examined visually for signs of bacterial growth. […] The diameter of this zone of “inhibition” was measured using a ProtoCOL™ automated zone sizer (Synbiosis, Cambridge, UK). […]
(§8) The area of the zone of inhibition was calculated from the measured zone diameter (D) using the formula π(D/2)^2. […]

[7] = system: S. pyogenes ATCC 12344; assay: Disc diffusion assay (DDA); type: cell-based, Streptococcus pyogenes; details: 200 μg per disc
Experimental: The S. pyogenes strain was cultured and maintained on Mueller-Hinton agar with 5% v/v defibrinated horse blood, and grown in Mueller-Hinton broth supplemented with 5% lysed horse blood (lysed horse blood was prepared as described in the NCCLS M7-A6 Vol. 23 No. 2); cultures were incubated aerobically at 37° C. for 24 hours.
as §5, §8

[8] = system: H. influenzae ATCC 49247; assay: MBC assay; type: cell-based, Haemophilus influenzae
Experimental: The H. influenzae strain was cultured and maintained on Haemophilus Test Medium (HTM) agar/broth (the composition of which is as described in NCCLS M7-A6 Vol. 23 No. 2); cultures were incubated in a CO2 atmosphere at 37° C. for 24 hours.
as §1, §2, §3

[9] = system: S. aureus ATCC 29213; assay: MBC assay; type: cell-based, Staphylococcus aureus
Method in brief: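 Organism grown aerobically on Mueller-Hinton agar/broth (pH 7.2) for 24 hours at 37° C. After the MIC step, samples plated on non-selective agar under those conditions; lowest concentration with no visible growth taken as the MBC.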

[10] = system: H. influenzae ATCC 49247; assay: MIC assay; type: cell-based; details: Haemophilus influenzae, ATCC49247
Source text: 5. Haemophilus influenzae ATCC 49247—a member of the genus Haemophilus, these organisms are Gram-negative bacilli which grow under aerobic or anaerobic conditions but require media with special supplements for laboratory culture. Strains of H. influenzae may be capsulated or non-capsulated. The capsulate strains are divided into serotypes, (designated b,c,d,e,f), on the basis of capsular antigens. The serotype H. influenzae type b is an important cause of invasive infections in humans, particularly in young children. The non-capsulate strains are common commensals in the upper respiratory tract, although there are also some healthy carriers of the type b strain. In the context of skin and topical treatments, H. influenzae can be a cause of cellulitis and otitis media (middle ear infection), again particularly in young children. […]
This is a standard international method for quantitatively assessing the antimicrobial activity of a compound in a liquid medium. […]
The wells were inoculated with a liquid suspension of freshly grown micro-organism and incubated under the conditions described above. […] The MIC value was recorded as the lowest concentration of test compound required to inhibit microbial growth, i.e., the lowest concentration for which the liquid in the well remained clear. […]

[11] = system: P. acnes NCTC 737; assay: Disc diffusion assay (DDA); type: cell-based, Propionibacterium acnes; details: Cutibacterium acnes, NCTC737; P. acnes NCTC 737; unsupplemented agar; 200 μg per disc (2,6-dimethoxy-p-benzoquinone 100 μg); read-out: DDA (diameter of zone of inhibition)

CC(C)(C)c1cc(O)ccc1O [TBHQ, 2-t-butyl hydroquinone]
zone of inhibition at 200 µg/disc [1]: 41.8 mm | MIC/MBC ratio [2]: 0.5 | DDA [3]: 13.07 mm | DDA [4]: 0.00 mm | DDA [5]: 10.56 mm | DDA [6]: 18.71 mm | DDA [7]: 50.67 mm | MIC/MBC ratio [8]: 1 | MBC ([8]; Haemophilus influenzae, ATCC49247): 15.6 µg/mL (≈ 93.9 µM) | MIC/MBC ratio [9]: 1 | MIC [10]: 15.6 µg/mL (≈ 93.9 µM) | zone of inhibition at 200 µg/disc [11]: 9.95 mm
